The text below walks through data of patent US8410289B2, “Spirocyclic 3'-alkoxytetramic acids and-tetronic acids” (Bayer Cropscience AG, priority 2004, dated 2013).

The first data set is described as follows: log P determination by HPLC on reverse-phase column (C 18), EEC-Directive 79/831 Annex V.A8. It counts as physicochemical. Particulars: HPLC reverse-phase C 18, acidic range pH 2.3, 43° C. The procedure:
• The log P values given in the tables and preparation examples above are determined in accordance with EEC-Directive 79/831 Annex V.A8 by HPLC (High Performance Liquid Chromatography) on a reverse-phase column (C 18). Temperature: 43° C.
The determination is carried out in the acidic range at pH 2.3 using the mobile phases 0.1% aqueous phosphoric acid and acetonitrile; linear gradient from 10% acetonitrile to 95% acetonitrile.
The LC-MS determination in the acidic range is carried out at pH 2.7 using the mobile phases 0.1% aqueous formic acid and acetonitrile (contains 0.1% formic acid); linear gradient from […] acetonitrile to 95% acetonitrile.
The LC-MS determination in the neutral range is carried out at pH 7.8 using the mobile phases 0.001 molar aqueous ammonium bicarbonate solution and acetonitrile; linear gradient from 10% acetonitrile to 95% acetonitrile.
The calibration is carried out using unbranched alkan-2-ones (with 3 to 16 carbon atoms) with known log P values (determination of the log P values by retention times using linear interpolation between two successive alkanones).
`COC1CCCC2(C1)OC(=O)C(c1cc(-c3ccc(Cl)cc3)c(C)cc1C)=C2OC(=O)OC(C)C` (stereo not drawn) [Example I-2-c-2] came in with a logP of 5.32. The compound `COC1CCCC2(C1)OC(=O)C(c1c(C)cc(C)cc1C)=C2OC(=O)OC(C)C` (stereo not drawn) [Example I-2-c-3] came in with a logP of 4.17. `COc1cc(C)cc(C)c1C1=C(OC(=O)OC(C)C)C2(CCCC(OC)C2)OC1=O` (stereo not drawn) [Example I-2-c-6] came in with a logP of 3.90. Same read-out and setting: to `COc1cc(C)cc(C)c1C1=C(OC(=O)OC(C)C)C2(CCCC(OC)C2)OC1=O` (stereo not drawn) [Example I-2-c-5] belongs 3.75; to `COC1CCCC2(C1)OC(=O)C(c1c(C)cc(C)cc1C)=C2OC(=O)OC(C)C` (stereo not drawn) [Example I-2-c-4], 4.34.

Staying with this data set, now noted: compounds of formula (I-2-a); generally isomer mixtures; those marked 1) were separated into cis and trans diastereomers.
For `COC1CCCC2(C1)OC(=O)C(c1cc(C)c(Br)cc1Br)=C2O` (stereo not drawn) [Example I-2-a-18], the logP stood at 2.58. Same read-out and setting: the result for `COC1CCCC2(C1)OC(=O)C(c1ccccc1Cl)=C2O` (mixture of isomers) [I-2-a-38] reads 1.86.

Regarding `CCc1cc(Br)cc(C)c1C1=C(O)C2(CCCC(OC)C2)OC1=O` (stereo not drawn) [Example I-2-a-13], the lipophilicity (logP) stood at 2.74. The same measure, in the same setting: the result for `COC1CCCC2(C1)OC(=O)C(c1cc(Cl)c(Br)cc1Cl)=C2O` (mixture of isomers) [I-2-a-40] reads 2.53; that for `COC1CCCC2(C1)OC(=O)C(c1c(Cl)ccc(C)c1Cl)=C2O` (mixture of isomers) [Example I-2-a-52], 2.23. As for `COC1CCCC2(C1)OC(=O)C(c1ccc(Cl)cc1C)=C2O` (single isomer, unassigned) [Example I-2-a-8], the logP was determined as 2.11.

As to `CCCCOC1CCCC2(C1)OC(=O)C(c1c(C)cc(C)cc1Cl)=C2O` (stereo not drawn) [I-2-a-60], the logP came out at 3.49.

Turning to `COC1CCCC2(C1)OC(=O)C(c1c(Cl)cc(C)cc1Cl)=C2O` (stereo not drawn) [Example I-2-a-21], the logP turned out to be 2.27. Consider `COC1CCCC2(C1)OC(=O)C(c1c(C)cc(C)c(C)c1C)=C2O` (stereo not drawn) [Example I-2-a-12], for which the logP is recorded as 2.50. Same read-out and setting: the result for `COC1CCCC2(C1)OC(=O)C(c1c(C)cc(C)c(F)c1C)=C2O` (stereo not drawn) [Example I-2-a-54] reads 2.45; that for `COC1CCCC2(C1)OC(=O)C(c1c(C)cc(C)cc1Cl)=C2O` (stereo not drawn) [Example I-2-a-27], 2.31. The same measure, in the same setting: to `COC1CCCC2(C1)OC(=O)C(c1cc(C)c(C)cc1Br)=C2O` (stereo not drawn) [Example I-2-a-9] belongs 2.35. Same read-out and setting: to `COC1CCCC2(C1)OC(=O)C(c1c(Cl)cc(Br)c(C)c1Cl)=C2O` (stereo not drawn) [I-2-a-53] belongs 2.70. As to `COC1CCCC2(C1)OC(=O)C(c1c(C)cc(C)c(Br)c1C)=C2O` (mixture of isomers) [I-2-a-41], the logP is reported as 2.70. For the compound `CCCCOC1CCCC2(C1)OC(=O)C(c1c(C)cc(Br)cc1CC)=C2O` (stereo not drawn) [I-2-a-63], the logP is 3.99.

Turning to `COC1CCCC2(C1)OC(=O)C(c1cc(-c3ccc(Cl)cc3)ccc1C)=C2O` (single isomer, unassigned) [Example I-2-a-32], the logP is given as 3.19^1). As for `COc1ccc(C2=C(O)C3(CCCC(OC)C3)OC2=O)c(C)c1` (mixture of isomers) [Example I-2-a-50], the logP amounted to 2.21. The same measure, in the same setting: to `COC1CCCC2(C1)OC(=O)C(c1cc(-c3ccc(Cl)cc3)ccc1Cl)=C2O` (stereo not drawn) [Example I-2-a-31] belongs 3.14; to `COC1CCCC2(C1)OC(=O)C(c1cc(Br)ccc1Br)=C2O` (mixture of isomers) [I-2-a-51], 2.27; to `COC1CCCC2(C1)OC(=O)C(c1c(C)cc(Cl)cc1Cl)=C2O` (stereo not drawn) [Example I-2-a-20], 2.41. On the same count and under the same terms, to `COC1CCCC2(C1)OC(=O)C(c1cc(C)ccc1Br)=C2O` (mixture of isomers) [Example I-2-a-49] belongs 2.16.

As for `COC1CCCC2(C1)OC(=O)C(c1ccc(Cl)cc1Cl)=C2O` (mixture of isomers) [Example I-2-a-39], the logP is listed as 2.21.

As for `COC1CCCC2(C1)OC(=O)C(c1ccc(Cl)cc1Br)=C2O` (mixture of isomers) [Example I-2-a-36], the logP came to 2.25. With `COC1CCCC2(C1)OC(=O)C(c1ccc(Cl)cc1C(F)(F)F)=C2O` (stereo not drawn) [I-2-a-24], the logP is on record as 2.37. On the same count and under the same terms, to `COC1CCCC2(C1)OC(=O)C(c1ccc(Cl)cc1C)=C2O` (single isomer, unassigned) [Example I-2-a-6] belongs 2.19. On the same count and under the same terms, to `COC1CCCC2(C1)OC(=O)C(c1cc(C)c(C)cc1C)=C2O` (stereo not drawn) [Example I-2-a-11] belongs 2.21; to `COC1CCCC2(C1)OC(=O)C(c1c(C)cc(Cl)cc1Br)=C2O` (mixture of isomers) [Example I-2-a-4], 2.46.

Take `COC1CCCC2(C1)OC(=O)C(c1c(Br)cc(C)cc1Br)=C2O` (stereo not drawn) [I-2-a-19]: the logP turned out to be 2.51. As for `CCCCOC1CCCC2(C1)OC(=O)C(c1ccc(C)cc1C)=C2O` (stereo not drawn) [I-2-a-58], the logP is on record as 3.32. Still for that read-out and setting: the result for `COC1CCCC2(C1)OC(=O)C(c1cc(-c3cccc(Cl)c3)ccc1Cl)=C2O` (stereo not drawn) [Example I-2-a-34] reads 3.11; that for `COC1CCCC2(C1)OC(=O)C(c1c(C)cc(C)cc1Br)=C2O` (stereo not drawn) [Example I-2-a-28], 2.36; that for `COC1CCCC2(C1)OC(=O)C(c1cc(C)ccc1C)=C2O` (mixture of isomers) [Example I-2-a-35], 2.15. The same measure, in the same setting: the result for `CCCCOC1CCCC2(C1)OC(=O)C(c1ccc(C)cc1Cl)=C2O` (stereo not drawn) [I-2-a-56] reads 3.32; that for `COC1CCCC2(C1)OC(=O)C(c1ccc(Br)cc1Cl)=C2O` (mixture of isomers) [Example I-2-a-37], 2.31. Same read-out and setting: the result for `COC1CCCC2(C1)OC(=O)C(c1cc(C)c(Cl)cc1C)=C2O` (mixture of isomers) [I-2-a-43] reads 2.47.

As to `COC1CCCC2(C1)OC(=O)C(c1c(C)cc(Br)cc1C)=C2O` (stereo not drawn) [Example I-2-a-10], the logP is given as 2.40. The same measure, in the same setting: to `CCCCOC1CCCC2(C1)OC(=O)C(c1c(C)cc(C)c(C)c1C)=C2O` (stereo not drawn) [I-2-a-61] belongs 3.76; to `COC1CCCC2(C1)OC(=O)C(c1cc(-c3ccc(Cl)cc3)c(C)cc1C)=C2O` (mixture of isomers) [Example I-2-a-2], 3.4; to `COC1CCCC2(C1)OC(=O)C(c1c(Cl)cccc1Cl)=C2O` (stereo not drawn) [Example I-2-a-15], 1.93.

For `COC1CCCC2(C1)OC(=O)C(c1c(C)ccc(Cl)c1C)=C2O` (mixture of isomers) [Example I-2-a-46], the logP is given as 2.42. Same read-out and setting: the result for `CCc1cc(Br)cc(Br)c1C1=C(O)C2(CCCC(OC)C2)OC1=O` (stereo not drawn) [Example I-2-a-26] reads 2.77.

Turning to `COC1CCCC2(C1)OC(=O)C(c1c(C)ccc(-c3ccc(Cl)cc3)c1C)=C2O` (mixture of isomers) [Example I-2-a-42], the logP came out at 3.29. On to `CCOC1CCCC2(C1)OC(=O)C(c1c(C)cc(-c3ccc(Cl)cc3)cc1CC)=C2O` (stereo not drawn) [Example I-2-a-17], for which the logP is listed as 4.19. Still for that read-out and setting: the result for `CCCCOC1CCCC2(C1)OC(=O)C(c1cc(C)ccc1C)=C2O` (stereo not drawn) [I-2-a-62] reads 3.36; that for `COC1CCCC2(C1)OC(=O)C(c1c(C)cc(C)cc1C)=C2O` (single isomer, unassigned) [Example I-2-a-14], 2.31^1).

Take `COC1CCCC2(C1)OC(=O)C(c1c(C)cc(Br)c(C)c1Br)=C2O` (mixture of isomers) [Example I-2-a-47]: the logP turned out to be 2.78.

In the case of `COC1CCCC2(C1)OC(=O)C(c1cc(F)c(C)cc1C)=C2O` (mixture of isomers) [Example I-2-a-45], the logP came out at 2.25. The same measure, in the same setting: to `COC1CCCC2(C1)OC(=O)C(c1c(C)cccc1Cl)=C2O` (stereo not drawn) [I-2-a-25] belongs 1.92; to `CCCCOC1CCCC2(C1)OC(=O)C(c1cc(C)c(C)cc1Br)=C2O` (stereo not drawn) [I-2-a-59], 3.57. The same measure, in the same setting: to `CCCCOC1CCCC2(C1)OC(=O)C(c1ccccc1C)=C2O` (stereo not drawn) [I-2-a-57] belongs 3.03.

Staying with this data set, now noted: compounds of formula (I-2-b); isomer (cis, trans or α + β about 1:1); two values for α + β mixtures.
In the case of `COC1CCCC2(C1)OC(=O)C(c1c(C)cc(C)cc1C)=C2OC(=O)C(C)C` (stereo not drawn) [Example I-2-b-3], the logP is 4.32.

`COc1cc(C)cc(C)c1C1=C(OC(=O)C(C)C)C2(CCCC(OC)C2)OC1=O` (stereo not drawn) [Example I-2-b-5]: the logP is on record as 3.90. Turning to `COC1CCCC2(C1)OC(=O)C(c1cc(-c3ccc(Cl)cc3)c(C)cc1C)=C2OC(=O)C(C)C` (stereo not drawn) [Example I-2-b-2], the logP is recorded as 5.25. On the same count and under the same terms, the result for `COc1cc(C)cc(C)c1C1=C(OC(=O)C(C)C)C2(CCCC(OC)C2)OC1=O` (stereo not drawn) [Example I-2-b-6] reads 3.75.

Staying with this data set, now noted: compounds of formula (II); two values where an α/β isomer mixture is given.
As for `CCc1cc(C)cc(Br)c1CC(=O)NC1(C(=O)OC)CCCC(OCCOC)C1` (single isomer, unassigned) [II-28], the “log P” value was “log P 3.64”.

Still in this data set, the particulars now being: reverse-phase HPLC column (C 18); HPLC, reverse-phase column (C 18), 43° C.
`CO[C@H]1CCC[C@@]2(C1)OC(=O)C(c1cc(-c3ccc(Cl)cc3)c(C)cc1C)=C2OC(=O)OC(C)C` [Example I-2-c-1] returned a chromatographic logP of 5.21. Still for that read-out and setting: to `CO[C@H]1CCC[C@]2(C1)OC(=O)C(c1cc(-c3ccc(Cl)cc3)c(C)cc1C)=C2OC(=O)C(C)C` [Example I-2-b-1] belongs 5.37; to `CCCCOC1CCCC2(C1)OC(=O)C(c1c(C)cc(C)cc1C)=C2O` (stereo not drawn) [Example I-2-a-1], 3.57.

As a reminder, the logP is the decadic logarithm of the partition coefficient of the neutral form, usually between octanol and water. A word on the chromatographic logP: it is lipophilicity estimated from chromatographic retention. Read a high chromatographic logP as a more lipophilic compound.
